In series [1] the target is T1, C5aR (Homo sapiens, UniProt P21730).
T1 sequence (P21730 1-350): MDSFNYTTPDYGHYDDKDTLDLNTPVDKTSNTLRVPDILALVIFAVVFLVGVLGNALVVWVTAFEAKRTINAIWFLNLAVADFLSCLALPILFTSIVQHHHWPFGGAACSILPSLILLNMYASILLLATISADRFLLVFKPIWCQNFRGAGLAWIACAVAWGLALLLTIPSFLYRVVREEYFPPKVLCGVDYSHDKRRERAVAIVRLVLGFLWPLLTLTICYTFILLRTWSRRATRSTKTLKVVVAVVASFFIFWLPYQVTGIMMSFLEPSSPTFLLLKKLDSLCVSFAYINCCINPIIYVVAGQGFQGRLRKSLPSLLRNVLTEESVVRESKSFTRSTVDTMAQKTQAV
Experimental: A scintillation proximity assay was used to measure the affinity of C5aR antagonists as described[39]. […] Radioligand binding was then analyzed using a Microbeta scintillation counter (PerkinElmer).

Series [2] addresses T2, C5aR (Rattus norvegicus, UniProt P97520).
T2 construct: C5aR-mediated rat paw oedema was induced by intraplantar administration of 350 μg C5aR-PA per hind paw; from tissue; host or cells: living male Wistar rats (hind paw)
T2 sequence (P97520 1-352): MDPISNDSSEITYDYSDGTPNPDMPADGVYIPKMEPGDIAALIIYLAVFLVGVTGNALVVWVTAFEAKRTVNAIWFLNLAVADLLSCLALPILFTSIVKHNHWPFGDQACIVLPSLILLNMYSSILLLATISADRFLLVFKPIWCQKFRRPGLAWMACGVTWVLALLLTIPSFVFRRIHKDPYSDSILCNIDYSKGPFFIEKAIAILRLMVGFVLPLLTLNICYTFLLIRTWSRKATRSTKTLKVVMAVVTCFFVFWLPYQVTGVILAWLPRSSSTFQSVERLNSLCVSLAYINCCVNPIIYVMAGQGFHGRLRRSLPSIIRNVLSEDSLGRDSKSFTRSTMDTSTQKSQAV
The experiment in a line: C5aR-PA-induced rat paw oedema. Type of series: in vivo, male Wistar rats. The following applies: for Effect on paw swelling after 2 h / Reduction in paw swelling: 30 mg/kg p.o.; for Reduction in paw swelling: at 30 min post-injection of C5aR-PA. How it is done: (§1) Paw oedema was induced in male Wistar rats by intraplantar administration of C5aR-PA (350 μg per paw in 100 μL of saline control). Paw swelling (% area change from baseline) was recorded at indicated timepoints. […] C5aR antagonist was administering as an intravenous dose (1 mg/kg via an implanted jugular vein catheter in 50:50 DMSO/saline) versus an oral dose (10 mg/kg in olive oil, via gavage). Plasma was collected at various time points and analyzed. Error bars are means ± SEM normalized to maximal swelling of saline control. *p < 0.05, **p < 0.01 and ***p < 0.001 by student t-test.
C5aR-mediated rat paw oedema was induced by intraplantar administration of 350 μg C5aR-PA per hind paw (Supplementary Fig. 5A). […] Male Wistar rats (6–8 wk, 250 ± 50 g) were bred at the Animal Resources Centre (Canning Vale, Australia) and housed post-shipment at the Australian Institute for Bioengineering and Nanotechnology (University of Queensland, Brisbane). […] After specific time-points, C5aR-PA was administered into the right hind paw pad (350 μg in 100 μL saline, i.pl). The left hind paw acted as a control, receiving saline only (100 μL). Rear paw thickness and width were measured at 1 h (and periodically over 4 h) post-injection using digital callipers (World Precision Instruments, Sarasota, FL, USA) and swelling was expressed as area (mm^2; thickness × width) and plotted as percentage change from baseline of each individual paw. […] Plasma was collected at various time points (0, 5, 15, 30 min, 1, 2, 3, 4, 6 and 8 h) from the jugular vein catheter and analyzed for antagonist concentrations using LCMS as described. The animal ethics committee of The University of Queensland approved all experiments according to NHMRC guidelines for the care and use of laboratory animals and in accordance with ARRIVE guidelines for reporting experiments involving animals. A total of N animals were used in each experiment as described.

A further series concerns C5a-induced neutropenia. Also noted: method as in PMID 12384495. The following applies: cited from earlier work.
Series [3] can be described thus: Pharmacokinetics and oral bioavailability in rats (LCMS of plasma). The following applies: rat; for F (oral availability): 1 mg/kg i.v. versus 10 mg/kg p.o. The protocol: as §1
Male Wistar rats (6–8 wk, 250 ± 50 g) were bred at the Animal Resources Centre (Canning Vale, Australia) and housed post-shipment at the Australian Institute for Bioengineering and Nanotechnology (University of Queensland, Brisbane). […] After specific time-points, C5aR-PA was administered into the right hind paw pad (350 μg in 100 μL saline, i.pl). The left hind paw acted as a control, receiving saline only (100 μL). Rear paw thickness and width were measured at 1 h (and periodically over 4 h) post-injection using digital callipers (World Precision Instruments, Sarasota, FL, USA) and swelling was expressed as area (mm^2; thickness × width) and plotted as percentage change from baseline of each individual paw. […] Plasma was collected at various time points (0, 5, 15, 30 min, 1, 2, 3, 4, 6 and 8 h) from the jugular vein catheter and analyzed for antagonist concentrations using LCMS as described. The animal ethics committee of The University of Queensland approved all experiments according to NHMRC guidelines for the care and use of laboratory animals and in accordance with ARRIVE guidelines for reporting experiments involving animals. A total of N animals were used in each experiment as described.
Supplementary Table 1. Pharmacokinetics parameters of C5aR antagonists in
aC5aR antagonist were administered 1 mg/kg i.v. and 10 mg/kg p.o.
Vdss; volume of distribution steady
Cmax; maximal plasma concentration reached
Tmax; time of maximal Cmax
F; Fraction of intact compound absorbed to plasma (oral availability)
Supplementary Table 2. Primer sequences for target genes.

The subject of series [4] is C5aR. As to conditions: inhibition of Ca2+ release versus 0.1nM rhC5a on neutrophils; read-out: Antagonist IC50; cited from earlier work.
Series [5] addresses T1, C5aR. The experiment in a line: Intracellular calcium release assay in HMDM against rhC5a. As to conditions: for IC50: HMDM calcium release.
Experimental: The concentration-response curves for calcium mobilization induced by rhC5a were determined in the presence of escalating concentrations of each of the three antagonists (Fig. 2D–F). […] Error bars are means ± SEM of three independent experiments (n = 3).
Figure 3 Dependence of antagonist potencies (IC50) on C5a concentration in human monocyte-derived macrophages. […] Calculated pIC50 ± SEM and IC50 values for the three C5aR antagonists are summarized in the table versus concentration of C5a. Error bars are means ± SEM of three independent experiments (n = 3).
Series [6] concerns the target T1, C5aR. In words: C5a-induced inflammatory gene expression in HMDM (real-time PCR). The following applies: 1 μM antagonist, 10 nM C5a at 16 h post-antagonist treatment. For orientation: Real-time PCR tracks product formation cycle by cycle.
Experimental: Real-time PCR analyses were conducted to further check the effect of residence time in other assays. […] Gene expression was measured by real-time PCR, normalized against 18S and converted to fold change relative to control.
RNA was extracted from cells using ISOLATE II RNA Kit (Bioline) following manufacturer’s instructions. Real-time PCR was performed using 7900HT real-time with SYBR® Green PCR master mix (Applied Biosystems) and primers. Relative gene expression was normalized against 18S rRNA expression and expressed as fold change against control samples.
The target of series [7] is T1, C5aR. The experiment in a line: Washout residence time, calcium release in antagonist-pretreated HMDM. The following applies: HMDM pre-treated 1 μM antagonist 1 h, washed, challenged with 3 nM C5a.
Text: Intracellular calcium release was induced in HMDM as described[40] and measured using a FLIPR instrument (Molecular Devices).
The test system of series [8] is C5aR. Set-up: method as in PMID 18595693. The following applies: inhibition of Ca2+ release versus […] rhC5a on U937 cells; read-out: Antagonist IC50; cited from earlier work.
The target in series [9] is T1, C5aR. In words: In vitro migration (chemotaxis) assay of HMDM. Type of series: cell-based. Set-up: monocytes were isolated from buffy coats of anonymous donors; endogenous in cells; host or cells: primary human monocyte-derived macrophages (CD14+ monocytes from donor buffy coats, matured with M-CSF). As to conditions: antagonist 1 μM, 1 h then washed; 3 nM C5a for 16 h. The text has this: Antagonists with a short residence time will be ineffective in this assay, because once the antagonist has dissociated from C5aR, C5a immediately binds and induces migration. […] Chemotactic index is expressed as fold change against control. […] Excess unbound antagonists were washed with serum-free medium and HMDM (0.1 × 10^6 cells/mL) then seeded into 5 μm Transwell inserts (Corning) creating a modified Boyden chamber. […] Migrated cells on the lower side of the membrane were stained with DAPI and counted. The chemotactic index was expressed as fold change versus control.

The conditions of series [10]: in vivo; cited from earlier work.
The mark [11] stands for this setting: male, Wistar, plasma, intravenous, 1 mg/kg.
Where [12] appears, read: male, Wistar, plasma, iv, 1 mg/kg.
Where [13] appears, read: male, Wistar, plasma, oral, 10 mg/kg.
The mark [14] stands for this setting: male, Wistar, plasma, po, 10 mg/kg.

This is an account of results in publication PMC4837355, “Receptor residence time trumps drug-likeness and oral bioavailability in determining efficacy of complement C5a antagonists” (Scientific Reports, 2016).

Values joined by “and” are separate entries in the source; they are usually repeats but may differ in a detail not shown here. Equal entries are not always repeated. Where two headings read alike, the source gives them in different places.

In the case of `COc1ccc2c(c1)C(C(=O)N(Cc1ccc(N(C)C)cc1)c1ccc(C(C)C)cc1)CCC2` (stereo not drawn) [W54011], at C5aR [1], affinity was put at a Ki of 79.4 nM. Moreover, the “Block of C5aR-PA-induced paw swelling” value on C5aR [2] (5 mg/kg per oral) is recorded as “did not block”. Besides, the “Effect on C5aR-PA-induced paw swelling” value at C5aR [2] (10 mg/kg p.o.) was “did not have much effect”. In addition, at C5aR [2], the “Effect on paw swelling after 2 h” value is “no longer effective”. For the same molecule, the “Reduction in paw swelling” value at C5aR [2] was 35%. The “Doses blocking C5a-induced gerbil neutropenia” value in the series on C5a-induced neutropenia is 3 to 30 mg/kg. The half-life (usually the time needed for the level to fall by half in the phase considered) in series [3] (male, Wistar, plasma) turned out to be 124 min. The Vd in series [3] (setting [11]) came to 18.3 L/kg. This molecule also registered a clearance in [3] (setting [11]) of 82.8 mL/min/kg. Further, the AUC (in general, concentration integrated over time) in [3] (setting [12]) came out at 212 ng·h/mL; in series [3] (setting [14]), 1570 ng·h/mL. The Cmax (commonly the maximum level reached in the sampled fluid or tissue) in [3] (setting [13]) was found to be 484 ng/mL. In addition, the bioavailability (as a rule, the share of a dose that reaches the circulation, judged against a reference dose that is usually intravenous) in series [3] (setting [14]) amounted to 74.3%. Besides, in series [3], the “F (oral availability)” value is given as ~ 74%. In addition, the IC50 (as a rule, the concentration that gives 50% inhibition) with C5aR [4] is 3 nM; on C5aR [5] (IC50, C5a 3 nM) it was 9 nM; on C5aR [5] (IC50, C5a 10 nM) it was 24 nM; on C5aR [5] (IC50, C5a 30 nM), 55 nM; on C5aR [5] (IC50, C5a 100 nM), 350 nM; at C5aR [5] (IC50, C5a 300 nM), 1460 nM. Also, the IC50 at C5aR [5] (pIC50 ± SEM, C5a 1 nM) was 3.98 nM; on C5aR [5] (pIC50 ± SEM, C5a 3 nM), 7.94 nM.

`CCc1cccc(CC)c1-c1cc(OC(C)C)c2c(n1)CCCC2Nc1ccccc1CCO` (stereo not drawn) [JJ47]: the Ki (as a rule, the equilibrium dissociation constant of an inhibitor or competing ligand from its target) on C5aR [1] was 316 nM. At C5aR [2], the “Effect on paw swelling after 2 h” value is recorded as “not much different to W54011”. For the same molecule, the “Reduction in paw swelling” value at C5aR [2] is listed as 15%. Moreover, the “Block of C5a-mediated expression of TNF, IL1B, CCL3 and PTGS2” value on C5aR [6] is recorded as “did not”. For the same molecule, the “Half-life t1/2 ± SEM (residence time on C5aR)” value on C5aR [7] was 36 ± 12 min. The half-life in [3] (male, Wistar, plasma) stood at 43.2 min. Further, in [3] (setting [11]), the Vd was found to be 3.5 L/kg. Moreover, in series [3] (setting [11]), the clearance worked out at 41 mL/min/kg. Further, the AUC in [3] (setting [12]) stood at 410 ng·h/mL; in [3] (setting [14]) it was 501 ng·h/mL. The molecule further registered a Cmax in [3] (setting [13]) of 127 ng/mL. In addition, in series [3], the “F (oral availability)” value is 12.2% and ~ 12%. In addition, the Kb on C5aR [5] is 5.01 nM. In addition, at C5aR [5] (C5a concentration-response curves with escalating antagonist, HMDM), the Antagonist mechanism result is reported as “surmountable antagonists”. The IC50 at C5aR [5] (IC50, C5a 1 nM) stood at 2 nM; at C5aR [5] (IC50, C5a 3 nM), 10 nM; at C5aR [5] (IC50, C5a 10 nM), 122 nM; on C5aR [5] (IC50, C5a 30 nM), 509 nM; on C5aR [5] (IC50, C5a 100 nM) it was 632 nM; at C5aR [5] (IC50, C5a 300 nM), 1070 nM. Further, the IC50 on C5aR [5] (pIC50 ± SEM, C5a 1 nM) was 1.58 nM; with C5aR [8], 7 nM. Further, on C5aR [5] (against rhC5a, calcium release, HMDM), the Schild plot slope is 0.94. Besides, at C5aR [9], the “Block of C5a-induced migration” value is “not effective antagonists”.

Consider `CC(=O)N[C@@H](Cc1ccccc1)C(=O)N[C@H]1CCCNC(=O)[C@H](CCCNC(=N)N)NC(=O)[C@H](Cc2c[nH]c3ccccc23)NC(=O)[C@@H](CC2CCCCC2)NC(=O)[C@@H]2CCCN2C1=O` [3D53, Ac-Phe-[Orn-Pro-D-Cha-Trp-Arg]], for which the Safety and tolerability result in series [10] was “safe and well tolerated”. For the same molecule, in [3] (male, Wistar, in vivo, po), the time of peak concentration (Tmax) (usually the time from dosing to the highest level) was 50 min. In [3] (in vivo), this molecule came in with a Cmax of 17.5 ng/mL, a Vd of 4.1 L/kg, a clearance of 52.1 mL/min/kg and a half-life of 21.6 min. The molecule also returned an AUC in [3] (in vivo, iv, 1 mg/kg) of 323 ng·h/mL. Moreover, in series [3] (in vivo, po, 10 mg/kg), the AUC stood at 76.6 ng·h/mL.
